Experimental data taken from ChEMBL document CHEMBL1130301, “Constrained -alanine based GpIIb/IIIa antagonists” (Bioorg Med Chem Lett, 1997).
Where a SMILES comes first, the peptide text is derived from it.

Biological target: Integrin alpha-IIb/beta-3 (Homo sapiens, UniProt P05106+P08514)
Assay: Inhibition of fibrinogen binding to activated human platelets
Assay type: functional

Integrin alpha-IIb/beta-3, sequence (P05106 27-788 limits assumed): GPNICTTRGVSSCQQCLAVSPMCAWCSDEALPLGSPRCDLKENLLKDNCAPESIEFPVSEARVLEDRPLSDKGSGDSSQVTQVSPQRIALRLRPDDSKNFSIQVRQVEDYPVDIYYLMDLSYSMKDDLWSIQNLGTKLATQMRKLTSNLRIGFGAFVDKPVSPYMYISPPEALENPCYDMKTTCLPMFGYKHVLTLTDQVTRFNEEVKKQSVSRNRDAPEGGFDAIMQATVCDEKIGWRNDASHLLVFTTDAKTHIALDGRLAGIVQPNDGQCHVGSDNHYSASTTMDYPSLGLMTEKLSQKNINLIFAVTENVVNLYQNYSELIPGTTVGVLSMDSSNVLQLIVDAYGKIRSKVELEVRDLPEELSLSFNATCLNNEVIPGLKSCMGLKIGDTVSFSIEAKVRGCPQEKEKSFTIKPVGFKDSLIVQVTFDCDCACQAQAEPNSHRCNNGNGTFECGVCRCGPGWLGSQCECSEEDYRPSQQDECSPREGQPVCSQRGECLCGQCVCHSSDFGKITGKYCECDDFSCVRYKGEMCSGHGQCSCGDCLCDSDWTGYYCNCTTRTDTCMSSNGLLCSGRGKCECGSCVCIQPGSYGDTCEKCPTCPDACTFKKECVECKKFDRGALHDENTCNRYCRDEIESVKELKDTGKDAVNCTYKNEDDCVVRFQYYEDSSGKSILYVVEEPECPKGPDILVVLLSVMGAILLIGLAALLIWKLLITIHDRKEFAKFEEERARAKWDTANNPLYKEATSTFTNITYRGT
Integrin alpha-IIb/beta-3, sequence (P08514 32-887 limits assumed): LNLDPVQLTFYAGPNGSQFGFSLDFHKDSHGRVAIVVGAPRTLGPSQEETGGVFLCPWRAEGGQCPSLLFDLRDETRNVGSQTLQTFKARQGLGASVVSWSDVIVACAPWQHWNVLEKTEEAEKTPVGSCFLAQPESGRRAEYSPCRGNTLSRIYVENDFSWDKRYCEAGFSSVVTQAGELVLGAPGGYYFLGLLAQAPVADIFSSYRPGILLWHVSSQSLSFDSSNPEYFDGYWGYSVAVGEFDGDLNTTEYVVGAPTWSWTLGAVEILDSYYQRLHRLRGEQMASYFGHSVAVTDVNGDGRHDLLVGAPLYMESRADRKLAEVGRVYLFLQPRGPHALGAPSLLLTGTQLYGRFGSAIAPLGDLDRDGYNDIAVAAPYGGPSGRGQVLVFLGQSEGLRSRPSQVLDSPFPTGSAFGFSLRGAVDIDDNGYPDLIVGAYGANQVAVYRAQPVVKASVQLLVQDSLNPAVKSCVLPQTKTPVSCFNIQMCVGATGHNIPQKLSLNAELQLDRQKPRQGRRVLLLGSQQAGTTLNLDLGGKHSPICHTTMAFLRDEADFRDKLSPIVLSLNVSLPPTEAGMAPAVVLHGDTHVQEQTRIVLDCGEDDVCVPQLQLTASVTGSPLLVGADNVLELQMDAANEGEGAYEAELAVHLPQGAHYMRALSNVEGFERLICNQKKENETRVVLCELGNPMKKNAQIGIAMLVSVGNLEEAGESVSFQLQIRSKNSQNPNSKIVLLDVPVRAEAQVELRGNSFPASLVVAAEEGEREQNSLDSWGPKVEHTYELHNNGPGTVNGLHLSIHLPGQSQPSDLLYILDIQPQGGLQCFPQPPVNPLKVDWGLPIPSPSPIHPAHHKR
Integrin alpha-IIb/beta-3, sequence (P08514 891-1039 limits assumed): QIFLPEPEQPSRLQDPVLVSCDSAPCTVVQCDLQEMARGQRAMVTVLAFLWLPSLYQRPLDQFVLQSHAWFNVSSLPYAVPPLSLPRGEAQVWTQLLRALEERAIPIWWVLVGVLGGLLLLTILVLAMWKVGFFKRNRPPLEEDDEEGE

SMILES | IC50
CC(C)[C@H](NC(=O)[C@H](CC(=O)O)NC(=O)CCN(C)C(=O)/C=C/c1ccc(NC(=N)N)cc1)C(=O)O | 200 nM
CC(C)[C@H](NC(=O)[C@H](CC(=O)O)NC(=O)[C@H]1CCN(C(=O)/C=C/c2ccc(NC(=N)N)cc2)C1)C(=O)O | 3000 nM
CC(C)[C@H](NC(=O)[C@H](CC(=O)O)NC(=O)[C@@H]1CCCN(C(=O)/C=C/c2ccc(NC(=N)N)cc2)C1)C(=O)O | 70 nM
CC(C)[C@H](NC(=O)[C@H](CC(=O)O)NC(=O)CCCNC(=O)/C=C/c1ccc(NC(=N)N)cc1)C(=O)O | 70000 nM
CC(C)[C@H](NC(=O)[C@H](CC(=O)O)NC(=O)CCNC(=O)/C=C/c1ccc(NC(=N)N)cc1)C(=O)O | 240 nM
CCN(CCC(=O)N[C@@H](CC(=O)O)C(=O)N[C@H](C(=O)O)C(C)C)C(=O)/C=C/c1ccc(NC(=N)N)cc1 | 220 nM
CC(C)[C@H](NC(=O)[C@H](CC(=O)O)NC(=O)[C@H]1CCCN(C(=O)/C=C/c2ccc(NC(=N)N)cc2)C1)C(=O)O | 120 nM
CC(C)[C@H](NC(=O)[C@H](CC(=O)O)NC(=O)C1CN(C(=O)/C=C/c2ccc(NC(=N)N)cc2)C1)C(=O)O | > 20000 nM
CC(C)[C@H](NC(=O)[C@H](CC(=O)O)NC(=O)CNC(=O)/C=C/c1ccc(NC(=N)N)cc1)C(=O)O | 5000 nM
CC(C)[C@H](NC(=O)[C@H](CC(=O)O)NC(=O)CNC(=O)[C@@H](N)CCCN=C(N)N)C(=O)O (H-RGDV-OH) | 6000 nM

The next lines start with the values.

IC50 | SMILES
26000 nM | CC(C)[C@H](NC(=O)[C@H](CC(=O)O)NC(=O)C[C@H]1CCCN1C(=O)/C=C/c1ccc(NC(=N)N)cc1)C(=O)O
200 nM | CC(C)[C@H](NC(=O)[C@H](CC(=O)O)NC(=O)C[C@@H]1CCCCN1C(=O)/C=C/c1ccc(NC(=N)N)cc1)C(=O)O
1500 nM | CC(C)[C@H](NC(=O)[C@H](CC(=O)O)NC(=O)C[C@@H]1CCCN1C(=O)/C=C/c1ccc(NC(=N)N)cc1)C(=O)O
110 nM | CC(C)[C@H](NC(=O)[C@H](CC(=O)O)NC(=O)C[C@H]1CCN1C(=O)/C=C/c1ccc(NC(=N)N)cc1)C(=O)O
> 20000 nM | CC(C)[C@H](NC(=O)[C@H](CC(=O)O)NC(=O)C[C@H]1CCCCN1C(=O)/C=C/c1ccc(NC(=N)N)cc1)C(=O)O
3 nM | CC(C)[C@H](NC(=O)[C@H](CC(=O)O)NC(=O)[C@@H]1CCN(C(=O)/C=C/c2ccc(NC(=N)N)cc2)C1)C(=O)O
